Article PMC12249915, “Development of a Cyclodextrin-Based Drug Delivery System to Improve the Physicochemical Properties of Ceftobiprole as a Model Antibiotic” (International Journal of Molecular Sciences, 2025)
In brackets after ≈: the same amount, converted by molar mass. Several values for one entry are separate records, joined by “and”; a condition that tells them apart may be missing. Identical values can stand only once. Like-named read-outs stand apart in the source and are kept apart here.

What was measured:
[1] = Solubility of ceftobiprole determined by HPLC; format: physicochemical
Procedure: The samples were stored in a freezer, taking into account the recommended storage conditions for ceftobiprole. The stability of the prepared samples was tested at defined intervals using the same methodology. To evaluate potential changes in solubility due to physical transformations such as phase transitions or recrystallization, an identical volume of water was added as in the initial solubility test. Subsequently, the reconstituted samples were analysed by HPLC to determine the precise solubility and to monitor any increase in the concentration of DPs content, thereby assessing both physical and chemical stability.
The LC-MS/MS experiments were performed using the same equipment and methodology as described in [14], with one modification: to acquire a full mass spectrum of SBE-β-CD, the range of detected m/z was broadened to 2500.

[2] = pH of solutions before freeze-drying and after reconstitution; format: physicochemical
[3] = DOSY NMR study of complex formation with SBE-β-CD; format: physicochemical; details: for diffusion coefficient D: DOSY, D2O, 25 °C, ceftobiprole/maleic acid 1:25 without SBE-β-CD at 7.5 mM ceftobiprole
Source text: Another approach to investigate the complex formation using NMR is the use of Diffusion-Ordered SpectroscopY (DOSY). Based on chemical shifts, each individual signal can be assigned to a proper species present in the analysed sample solution, thus allowing us to determine its diffusion coefficient D . The value of D depends on the hydrodynamic radius r of the analysed species, temperature T , and on the dynamic viscosity η of the solution:(1) D=kBT/6π η r
Here, kB stands for the Boltzmann constant. The solutions used for the DOSY measurements should be appropriately diluted to avoid the viscosity-related issues. Moreover, to properly compare the DOSY spectra between the samples with and without SBE-β-CD, it must be checked whether the viscosities of these two samples are similar.
It is a generally accepted practice to approximate that D is the same for the CD in a complex and for free CD. Assuming a quick exchange regime, to calculate the molar fraction MFCB of ceftobiprole molecules being complexed in relation to all ceftobiprole molecules in the studied solution, one can take advantage of the equation stating that DCB−CD is the weighted average of DCB and DCD :(2) DCB−CD=MFCBDCB+(1−MFCB)DCD
The complexation equilibrium is dynamic, and can be interpreted as a statistical ceftobiprole molecule spending MFCB proportion of time in a complex, and (1−MFCB) fraction of time alone, resulting in overall DCB−CD being the weighted average.
In these studies, 16 increments consisting of 64 scans were performed. A relaxation time of 2 s, a diffusion time of 200 ms, a total diffusion encoding gradient duration of 2 ms, and 16 values of the diffusion encoding gradient incremented from 3 to 25 G/cm were applied. Processing was carried out using the OpenVnmrJ 3.1A software with the option of correction for spatially non-uniform pulsed field gradients.

[4] = cited from earlier work
[5] = set-up: method as in PMID 38068968; details: theoretical calculations, depending on the software used; cited from earlier work

With `Nc1nc(/C(=N/O)C(=O)N[C@@H]2C(=O)N3C(C(=O)O)=C(/C=C4\CCN([C@@H]5CCNC5)C4=O)CS[C@H]23)ns1` [ceftobiprole] the solubility ([1]; 0.1 M aqueous formic acid (HCOOH), solubility of ceftobiprole before use of 0.1 M formic acid and SBE-β-CD) was about 100 µg/mL (≈ 187 µM), the “fold higher solubility after freeze-drying in 0.1 M HCOOH” value ([1]; freeze-dried (2.1 mg/mL) vs unprocessed in 0.1 M HCOOH ([…])) was 15 fold and the solubility ([1]; water, freeze-dried analogue without SBE-β-CD, reconstituted in water, read-out: Solubility of Ceftobiprole for Freeze-Dried Samples in a Preliminary Study Without SBE-β-CD) was 2100 µg/mL (≈ 3930 µM). The solubility ([1]; water, freeze-dried from water without acid, read-out: solubility after freeze-drying of pure aqueous solutions) was 120 µg/mL (≈ 224 µM), the solubility ([1]; water, without freeze-drying in acidic environment, read-out: water solubility of ceftobiprole) was 50 µg/mL (≈ 93.5 µM) and the “pH of the dissolved sample” value ([2]; freeze-dried in 0.1 M HCOOH without SBE-β-CD) was “approximately 5”. The “diffusion coefficient D” value [3] was “≈ 3.16 × 10^−10 m^2/s”, the “molar fraction MFCB of ceftobiprole molecules being complexed” value ([3]; cCB = 1.917 mM, cCD = 7.667 mM) was “≈ 0.35” and the “molar fraction MFCB” value ([3]; calculated for cCB = 22.5 mM, cCD = 90 mM (1:25:4), K = 77 M^−1) was 0.845. The “molar fraction MFCB” value ([3]; calculated for molar ratio 1:25:2, cCD = 45 mM) was 0.693, the “equilibrium constant K of complex with SBE-β-CD” value ([3]; semi-quantitative, from DOSY) was 77 M⁻¹ and the “ceftobiprole molecules in the complex with SBE-β-CD” value ([3]; solution near saturation, 1:25:4) was 85%. The t90 ([4]; 0.01 M NaOH) was “≈ 10 min”, the “t90 (time for 10% decrease in initial concentration)” value ([4]; 0.1 M HCl at room temperature) was “approximately 22 h” and the t90 ([4]; 3% H2O2) was “≈ 25 min”. For the same compound, the t90 ([4]; UV irradiation at 366 nm) was “≈ 1 h”, the “decrease of degradation rate constant in the presence of 10 mM SBE-β-CD” value ([4]; acidic degradation in 0.1 M HCl at 25 °C) was 2.5 fold and the “decrease of degradation rate constant in the presence of 10 mM SBE-β-CD” value ([4]; thermal degradation in water at 45 °C) was 2.5 fold. The “pKa of the carboxyl group of ceftobiprole” value [5] was 3.0 and 3.2.

For `O=C(O)CC(O)(CC(=O)O)C(=O)O` [citric acid], the “pH of the solution intended for freeze-drying” value (from here on “pH … for freeze-drying”) ([2]; 20-fold molar excess of citric acid in relation to ceftobiprole) was 2.9, the “pH … for freeze-drying” value ([2]; 50-fold molar excess of citric acid in relation to ceftobiprole) was 2.7 and the “pH … for freeze-drying” value ([2]; 100-fold molar excess of citric acid in relation to ceftobiprole) was 2.5.

With `O=C(O)/C=C\C(=O)O` [maleic acid] the “diffusion coefficient D” value [3] was 7.11 × 10^−10 m^2/s.
